Assay results published in paper PMC12088000, “Design, synthesis and in silico molecular modelling studies of 2-Hydrazineyl-2-oxoethyl-4-(1H-pyrrol-1-yb) benzoate derivatives: a potent dual DHFR and ENR-reductase inhibitors with antitubercular, antibacterial and cytotoxic potential” (PLOS One, 2025).
≈ marks a conversion by molar mass, not a printed value.

How the values were obtained:
M. tuberculosis H37Rv = assay: Antitubercular activity, Microplate Alamar Blue test (MABA); type: cell-based, Mycobacterium tuberculosis; conditions: n = 3; for MIC: Mycobacterium tuberculosis, H37RV
[1] = target: InhA enzyme from M. tuberculosis (Mycobacterium tuberculosis, UniProt P9WGR1); assay: InhA inhibition assay; type: biochemical; conditions: read-out: % InhA Inhibition at 50 µM
MtDHFR = MtDHFR (Mycobacterium tuberculosis, UniProt P9WNX1); assay: biochemical; type: biochemical
[2] = tested on: human lung cancer cell line A549; assay: MTT-based cytotoxicity; type: cell-based; conditions: MTT assay; for IC50: Homo sapiens, A549
Experimental: The cytotoxic effects of seventeen selected molecules were assessed against the A549 human lung adenocarcinoma cell line using the MTT assay. Cisplatin served as the reference drug for comparison. Lower IC50 values indicate higher cytotoxicity.
The cytotoxic activity (IC50) of selected compounds against A549 (lung adenocarcinoma) MV cell-lines was evaluated by performing cellular conversion of MTT [3-(4,5-dimethylthiazo-2-yl)-2,5-diphenyl-tetrazolium bromide] into a formazan product. This evaluation was conducted up to a concentration of 50 mg/mL using the Promega Cell Titre 96 non-radioactive cell proliferation assay, with cisplatin serving as the positive control. Cytotoxicity is commonly quantified by determining the IC50 value, which represents the quantity of a substance that reduces the optical density of treated cells by 50% compared to untreated cells, as measured by the MTT experiment. The results are presented as IC50 values (mean ± standard error of the mean (SEM) obtained from three separate and independent measurements.

E. coli ATCC 25922 = assay: Antibacterial activity, broth microdilution (E. coli); conditions: for MIC: Escherichia coli, ATCC25922, read-out: E. coli ATCC 25922 (Gram –ve) MIC, broth microdilution
Experimental: (§1) All twenty-eight molecules were evaluated for in vitro antimicrobial activities that were assessed against Gram +ve and Gram -ve strains.
(§2) The antibacterial inhibitory effects of all compounds were assessed using the broth microdilution method, with ciprofloxacin serving as the reference medication.

S. aureus ATCC 29213 = assay: Antibacterial activity, broth microdilution (S. aureus); conditions: Staphylococcus aureus, ATCC29213, read-out: S. aureus ATCC 29213 (Gram +ve) MIC
Experimental: as §1, §2

Sequence of InhA enzyme from M. tuberculosis (P9WGR1 whole entry, looked up): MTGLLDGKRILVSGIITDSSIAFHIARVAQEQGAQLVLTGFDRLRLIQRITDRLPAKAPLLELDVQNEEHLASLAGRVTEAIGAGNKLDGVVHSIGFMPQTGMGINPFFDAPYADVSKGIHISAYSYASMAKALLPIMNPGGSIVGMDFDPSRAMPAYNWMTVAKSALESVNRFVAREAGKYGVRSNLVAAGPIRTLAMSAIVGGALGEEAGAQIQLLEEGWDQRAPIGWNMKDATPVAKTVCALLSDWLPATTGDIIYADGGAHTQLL
Sequence of MtDHFR (P9WNX1 whole entry): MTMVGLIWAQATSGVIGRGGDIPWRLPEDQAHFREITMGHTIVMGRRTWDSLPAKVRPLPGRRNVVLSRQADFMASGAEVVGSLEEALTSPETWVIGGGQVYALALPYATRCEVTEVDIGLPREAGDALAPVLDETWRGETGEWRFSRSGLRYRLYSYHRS

Row | Structure (SMILES) | MIC (M. tuberculosis H37Rv) [µg/mL] | inhibition at 50 µM [1] [%] | IC50 (MtDHFR) [µM] | MtDHFR inhibition, in words, compared with trimethoprim (MtDHFR) | IC50 [2] [µg/mL] | MIC (E. coli ATCC 25922) [µg/mL] | MIC (S. aureus ATCC 29213) [µg/mL] | E. coli ATCC 25922 (Gram –ve) MIC (E. coli ATCC 25922; broth microdilution) [µg/mL] | M. tuberculosis H37Rv MIC values (M. tuberculosis H37Rv) [µg/mL] | IC50 human lung cancer cell line A549 [2] [µg/mL]
1 | Cc1cc(=O)n(C(=O)COC(=O)c2ccc(-n3cccc3)cc2)[nH]c1=O [Compound 4f, 2-(4-methyl-3,6-dioxo-2,3-dihydropyridazin-1(6H)-yl)-2-oxoethyl 4-(1H-pyrrol-1-yl)benzoate] | 1.6 (≈ 4.53 µM) | 23 | 35 | greater inhibition characteristics than trimethoprim | 258 ± 0.1 (≈ 730 µM) | 0.8 (≈ 2.26 µM) | 3.12 (≈ 8.83 µM) |  |  | 
2 | CC(=NNC(=O)COC(=O)c1ccc(-n2cccc2)cc1)c1cccc(Cl)c1 [Compound 5k, 2-(2-(1-(3-chlorophenyl)ethylidene)hydrazinyl)-2-oxoethyl 4-(1H-pyrrol-1-yl)benzoate] | 1.6 (≈ 4.04 µM) | 32 | 69 | moderate inhibition | 229 ± 0.4 (≈ 579 µM) | 3.12 (≈ 7.88 µM) | 12.5 (≈ 31.6 µM) |  |  | 
3 | NC(=O)c1cnccn1 [Pyrazinamide, reference compound] | 3.12 (≈ 25.3 µM) |  |  |  |  |  |  |  |  | 
4 | CC(=NNC(=O)COC(=O)c1ccc(-n2cccc2)cc1)c1ccc(Br)cc1Br [Compound 5m, 2-(2-(1-(2,4-dibromophenyl)ethylidene)hydrazinyl)-2-oxoethyl 4-(1H-pyrrol-1-yl)benzoate] | 3.12 (≈ 6.01 µM) |  | 90 |  |  | 0.4 to 0.8 (≈ 0.77 to 1.54 µM) | 6.25 (≈ 12 µM) | 0.8 |  | 
5 | O=C(O)c1cn(C2CC2)c2cc(N3CCNCC3)c(F)cc2c1=O [Ciprofloxacin, reference compound] |  |  |  |  |  | 2 (≈ 6.04 µM) | 2 (≈ 6.04 µM) |  |  | 
6 | O=C(COC(=O)c1ccc(-n2cccc2)cc1)NN=Cc1ccc(Cl)cc1 [Compound 6d, 2-(2-(4-chlorobenzylidene)hydrazinyl)-2-oxoethyl 4-(1H-pyrrol-1-yl)benzoate] | 0.8 (≈ 2.1 µM) | 18 | 62 | moderate inhibition | 262 ± 0.7 (≈ 686 µM) | 1.6 (≈ 4.19 µM) | 3.12 (≈ 8.17 µM) |  | 0.8 | 
7 | CC(=NNC(=O)COC(=O)c1ccc(-n2cccc2)cc1)c1cccc([N+](=O)[O-])c1 [Compound 5g, 2-(2-(1-(3-nitrophenyl)ethylidene)hydrazinyl)-2-oxoethyl 4-(1H-pyrrol-1-yl)benzoate] | 1.6 (≈ 3.94 µM) | 34 | 132 |  | 249 ± 0.9 (≈ 613 µM) | 1.6 (≈ 3.94 µM) | 6.25 (≈ 15.4 µM) |  |  | 
8 | O=C(OCC(=O)n1[nH]c(=O)c2c(Br)c(Br)c(Br)c(Br)c2c1=O)c1ccc(-n2cccc2)cc1 [Compound 4c, 2-oxo-2-(5,6,7,8-tetrabromo-1,4-dioxo-3,4-dihydrophthalazin-2(1H)-yl)ethyl 4-(1H-pyrrol-1-yl)benzoate] | 1.6 (≈ 2.27 µM) | 51 | 21 | greater inhibition characteristics than trimethoprim | 287 ± 0.7 (≈ 407 µM) | 0.8 (≈ 1.13 µM) | 6.25 (≈ 8.87 µM) |  |  | 
9 | C=C1CC(=O)N(C(=O)COC(=O)c2ccc(-n3cccc3)cc2)NC1=O [Compound 4g, 2-(4-methylene-3,6-dioxotetrahydropyridazin-1(2H)-yl)-2-oxoethyl 4-(1H-pyrrol-1-yl)benzoate] | 1.6 (≈ 4.53 µM) |  | 56 | moderate inhibition |  | 0.8 (≈ 2.26 µM) | 3.12 (≈ 8.83 µM) |  |  | 
10 | N.N.[Cl][Pt][Cl] [Cisplatin, reference compound] |  |  |  |  |  |  |  |  |  | 9.90
11 | COc1cccc(C(C)=NNC(=O)COC(=O)c2ccc(-n3cccc3)cc2)c1 [Compound 5h, 2-(2-(1-(3-methoxyphenyl)ethylidene)hydrazinyl)-2-oxoethyl 4-(1H-pyrrol-1-yl)benzoate] | 1.6 (≈ 4.09 µM) |  | 124 |  |  | 3.12 (≈ 7.97 µM) | 12.5 (≈ 31.9 µM) |  |  | 
12 | O=C(COC(=O)c1ccc(-n2cccc2)cc1)NN=Cc1ccc([N+](=O)[O-])cc1 [Compound 6c, 2-(2-(4-nitrobenzylidene)hydrazinyl)-2-oxoethyl 4-(1H-pyrrol-1-yl)benzoate] | 1.6 (≈ 4.08 µM) | 9 | 133 |  | 296 ± 0.3 (≈ 754 µM) | 1.6 (≈ 4.08 µM) | 6.25 (≈ 15.9 µM) |  |  | 
13 | NNC(=O)c1ccncc1 [Isoniazid, reference compound] | 1.6 (≈ 11.7 µM) | > 99 |  |  | > 450 |  |  |  |  | 
